According to patent US20230181678A1, “NOVEL ANTIBACTERIAL PEPTIDE OR PEPTIDE ANALOG AND USE THEREOF” (CAMP THERAPEUTICS INC., priority 2020, published 2023):
* marks the point of attachment. Octanoyl = CCCCCCCC(=O)*

How the values were obtained:
[1] = tested on: outer membrane of E. coli NDM-1; experiment: Enzyme assay, outer membrane leakage (β-lactamase release, CENTA); format: cell-based; conditions: peptide 0.63 or 1.30 uM, 37° C., 1 h; 200 μM CENTA
Protocol: It was observed, through an enzyme assay, whether the sensitizing peptide destroyed the outer and inner membranes of Gram-negative bacteria. In the presence of the sensitizing peptide, it was observed whether in a case where 1.5 mM ONPG was used together therewith, β-galactosidase was released from E. coli ATCC 25922 for the inner membrane, and whether in a case where 200 μM CENTA was used together therewith, β-lactamase was released from E. coli NDM-1 for the outer membrane.
Specifically, to determine leakage of the outer membrane, activity of the β-lactamase released from the outer membrane was evaluated. New Delhi metallo-β-lactamase-1 (NDm-1)-producing E. coli cells were washed three times with DPBS and suspended in the same buffer. The cells were diluted to an OD600 of 0.2 and treated with the peptide at a concentration of 0.63 or 1.30 uM at 37° C. for 1 h. After centrifugation, the supernatant was incubated with 200 μM CENTATM β-lactamase substrate at 37° C. for 1 hour. An optical density was obtained by measuring absorbance of a product of enzyme reaction at 405 nm using a microplate reader (Molecular Devices Co., Menlo Park, Calif.).
The results are illustrated in FIGS. 12A and 12B. The y-axis is absorbance measured at 405 nm, and higher absorbance is observed as a higher amount of β-lactamase is released due to destruction of the membrane.

[2] = tested on: Acinetobacter baumannii ATCC 17978; experiment: MIC assay, sensitizing effect of peptide on antibiotics; format: cell-based
A. baumannii 801 [3] = experiment: Neutropenic mouse pneumonia model, number of colonies in lungs; format: in vivo
Protocol: (§1) To induce neutropenia in 6-week-old female ICR (CD-1) mice weighing 23 g to 27 g (Orient Bio, Seongnam, Korea), the mice were treated (subcutaneously injected) with 150 mg/kg and 100 mg/kg of cyclophosphamide (CP), respectively, 4 days and 1 day before pneumonia infection. For a mouse model for survival analysis, the mice were infected intranasally with 1×10^8 CFU A. baumannii 801; and for a mouse model for colony number counting, the mice were infected intranasally with 1×10^6 CFU A. baumannii 801.
In addition to the survival rate in the neutropenic mouse pneumoniae mouse model, the number of colonies of A. baumannii 801 was measured in the mouse lungs. The mice were euthanized and lungs were harvested in sterile saline. The lungs were homogenized and serially diluted in sterile saline. The homogenized lungs were applied to tryptic soy agar plates, incubated at 37° C. overnight, and the number of colonies was counted. […] Six mice were used per each group.

Kp NDM-1 = experiment: MIC assay, sensitizing effect of peptide on rifampicin (CRE); format: cell-based, Klebsiella pneumoniae; conditions: FIG. 9F; Kp NDM-1 (CRE); peptide 4 ug/ml
Protocol: All MIC assay experiments were performed using the Clinical and Laboratory Standards Institute (CLSI) guidelines (Clinical & Laboratory Standards Institute: CLSI Guidelines, 2017). Bacterial cells cultured overnight were diluted to 0.05 McFarland standard using McFarland (KIT […] PLUS INSTRUMENT, Biomerieux) in Muller Hinton II Broth (cation-adjusted) (Difco). The cells were inoculated at 1.5×10^5 CFU per 200 μL solution of each well in a 96-well plate. The peptide and the antibiotic were prepared using 2-fold serially diluted concentrations. […] Incubation was performed at 37° C. for 18 hours, and then absorbance was measured at 600 nm using an EPOCH2 microplate reader (BioTek, Winooski, USA) to calculate a MIC value. The MIC value was defined as a concentration of the antibiotic or peptide at which bacterial growth was inhibited to a level of lower than 10% growth of the positive control. Fold reduction was calculated using the following expression.
ATCC 25922, A.b. ATCC 17978, K.p. ATCC 700603, and P.a. ATCC 27853, or CRE (E.c. NDM-1, K.p. NDM-1, or K.p. KPC) (FIGS. 9 and 10).

A. baumannii 801 [4] = experiment: Immunosuppressed mouse pneumonia infection survival model; format: in vivo
Protocol: as §1
The sensitizing peptide CMP1401 of the present disclosure was administered by intraperitoneal injection 4 times daily for 2 days (25 mg/kg QID). Six mice were used per each group.

[5] = 2.5 mg/kg rifampicin + 25 mg/kg CMP1401 vs 2.5 mg/kg rifampicin alone

OctA-KKALKLAKKPLKLLK-NH2 (Octanoyl-KKALKLAKKPLKLLK-NH2) [CMP1401]
destruction of outer membrane (β-lactamase release) [1]: did not destroy these membranes
Decreased MIC value of rifampicin at peptide concentration of 4 ug/ml ([2]; FIG. 9B, A.b. ATCC 17978, peptide 4 ug/ml): 0.031 µg/mL
sensitizing effect for fusidic acid ([2]; peptide 0.31 μM, vs fusidic acid alone): 250 times
sensitizing effect for novobiocin ([2]; peptide 0.31 μM, vs novobiocin alone): 16 times
sensitizing effect for rifampicin ([2]; peptide 0.31 μM, vs rifampicin alone): 64 times
number of colonies fewer than rifampicin alone group (A. baumannii 801 [3]; [5]): about 12 times
number of colonies fewer than untreated group (control) (A. baumannii 801 [3]; rifampicin and CMP1401 co-administered vs untreated): about 60 times
number of colonies fewer than rifampicin and SPR741 group (A. baumannii 801 [3]; rifampicin and CMP1401 vs rifampicin and SPR741): about 30 times
Decreased MIC value of rifampicin at peptide concentration of 4 ug/ml (Kp NDM-1): 7.8 ng/mL
survival rate (A. baumannii 801 [4]; 2.5 mg/kg of rifampicin and 25 mg/kg of CMP1401 (intraperitoneal, QID) co-administered): 50%
survival rate higher than rifampicin alone (A. baumannii 801 [4]; [5]): about 33.3%
survival / antibacterial activity, peptide administered alone (A. baumannii 801 [4]; CMP1401 administered alone): all mice died
